Source: patent US5801183A, “Aza and aza (N-oxy) analogs of glycine/NMDA receptor antagonists” (priority 1995, dated 1998)

Tests used:
[1] = target: T1, NMDA receptor glycine site (Rattus norvegicus, UniProt P35439); assay: inhibition of [3H]DCKA binding to rat brain membranes
T1 construct: from tissue; host or cells: rat brain membranes
Protocol: (§1) The affinity of the compounds for the NMDA receptor glycine site also was measured by inhibition of [^3 H]DCKA binding to rat brain membranes. See, Canton, T. et al., J. Pharm. Pharmacol. 44:812-816 (1992).

mice = assay: maximum electroshock-induced seizure (MES) assay in mice; format: in vivo, male Swiss/Webster mice; details: Mus musculus, iv, drug applied i.v. as an aqueous basic solution, read-out: ED50 as an anticonvulsant in a MES experiment in mice
Excerpt: The anticonvulsant activity of the glycine antagonists may be assessed in the maximum electroshock-induced seizure (MES) assay in mice. Electroshock was applied to male Swiss/Webster mice (20-30 g, Simonsen) through corneal electrodes (Swinyard, E. A., in Anticonvulsant Drugs, Mercier, J., ed., Pergamon Press, Oxford (1973), pp. 47-65). The seizure stimulus parameters were: 50 mA, 60 Hz, rectangular pulse, width 0.8 msec, duration 200 msec. Tonic hind limb extension observed after application of the electrical stimulus was recorded as occurrence of seizure. The drug was applied i.v. as an aqueous basic solution.

[2] = tested on: glycine binding site of the NMDA receptor; details: cited from earlier work
[3] = in vivo; cited from earlier work
glycine/NMDA receptor = target: T2, glycine/NMDA receptor (Rattus norvegicus, UniProt P35439); assay: affinity at the glycine/NMDA receptor; format: binding
T2 construct: rat brain membrane homogenates that are enriched in NMDA receptors; tissue Pel-Freez, Rogers, Ark; host or cells: frozen rat brain, membrane homogenate
Protocol: as §1
The glycine antagonist potency in vitro may be determined using a 1 μM glycine-stimulated [^3 H]-MK801 binding assay. This assay takes advantage of the fact that the binding of [^3 H]-MK801 to the PCP receptor inside the pore of the NMDA channel is dependent on the presence of both glutamate and glycine. […]
The assay is conducted using rat brain membrane homogenates that are enriched in NMDA receptors. […] The final pellet is suspended in three volumes of 50 mM HEPES, pH 7.4 and the protein concentration is determined with a standard dye-binding protein assay (Bio-Rad, Richmond, Calif.). […]
On the day of the assay, the previously prepared membranes are thawed and 5 mM Tris/HCl buffer, pH 7.4, is added to yield a final protein concentration of 0.156 mg/mL. […] To determine the effect of 1 μM glycine on the binding of [^3 H]-MK801, bound radioactivity in the presence of 10 μM glutamate alone (final concentration) is subtracted from the bound radioactivity in the presence of both 10 μM glutamate and 1 μM glycine (final concentration). […]

PCP receptor = details: Wong et al., PNAS 83:7104-7108 (1986); cited from earlier work
pigeons = details: cited from earlier work
rodents = rodents / animal models; cited from earlier work
log P (literature) = format: physicochemical; details: from benzene to the named substance

SMILES	binding affinity for the glycine site (in words) [2]	blood/brain barrier penetration [3]	also measured
N#Cc1c(=O)[nH]c2cc(Cl)c(Cl)cc2[n+]1[O-] [3-Cyano-6,7-dichloro-1,2-dihydroquinoxaline-2-one-4-oxide]			IC50 [1]: 135 nM; ED50 (mice): 5 mg/kg
O=c1[nH]c2ccccc2c(O)c1[N+](=O)[O-] [4-hydroxy-3-nitro-1,2-dihydroquinolin-2-one]	high binding to the glycine receptor		
O=C(O)c1cc(O)c2c(Cl)cc(Cl)cc2n1 [5,7-dichlorokynurenic acid]	relatively high receptor binding affinity in vitro	cannot penetrate the blood/brain barrier	
Oc1nc2cc(Cl)cnc2c(O)c1-c1cccc(Oc2ccccc2)c1 [5-Aza-7-chloro-4-hydroxy-3-(m-phenoxyphenyl)quinolin-2-one]			Ki (glycine/NMDA receptor): 5 nM; ED50 (mice): 3 mg/kg
O=C(O)c1cc(O)c2ccc(Cl)cc2n1 [7-Cl-kynurenic acid]	relatively high receptor binding affinity in vitro	cannot penetrate the blood/brain barrier	
NC1CCN(O)C1=O (stereo not drawn) [HA-966]	partial agonist with micromolar affinity for the glycine binding site	sufficiently penetrates the blood/brain barrier	
C[C@]12N[C@H](Cc3ccccc31)c1ccccc12 [MK-801]			Kd (PCP receptor): ~3 nM
c1ccc(C2(N3CCCCC3)CCCCC2)cc1 [PCP, phencyclidine]			katalepsy in pigeons (pigeons): characteristic katalepsy in pigeons; PCP-like behavioral effects (rodents): behavioral excitation (hyperlocomotion) in rodents
NCC(=O)O [glycine]			Kd ([2]; used in Cheng and Prusoff equation, read-out: known affinity for the glycine binding site of the NMDA receptor): 100 nM
O=C(O)c1cc2ccccc2[nH]1 [indole-2-carboxylic acid]	relatively high receptor binding affinity in vitro	cannot penetrate the blood/brain barrier	
[O-][n+]1ccccc1 [pyridine N-oxide]			difference in log P from benzene (log P (literature)): -3.84
